Measured values reported in patent US9873690B2, “3-indol substituted derivatives, pharmaceutical compositions and methods for use” (Pfizer Inc., priority 2015, dated 2018).

The molecules below were run against T1, hTDO2 (Homo sapiens, UniProt P48775) (assay: Cellular assay for TDO2 activity determination in A172 cells). Details: human glioblastoma A172 cells naturally expressing hTDO2; overnight incubation; kynurenine by absorbance at 480 nm.
T1 construct: endogenous in cells; host or cells: A172 human brain glioblastoma cells (ATCC CRL-1620)
Assay type: cell-based
Procedure: The compounds of formula I inhibit the activity of human TDO2 in cells that constitutively express TDO2, such as A172 cells. A172 is a cell line derived from human brain glioblastoma cells. The cells are available from the American Type Culture Collection (ATCC®) as CRL-1620™.
The assay (adapted from Pilotte L et al., Proc Natl Acad Sci USA, 2012, 109(7), 2497-502) was performed in 96-well flat bottom plates seeded with human glioblastoma A172 cells, naturally expressing hTDO2 (prepared as described in Tilman et al., Mol Cancer, 2007, 17(6), 80), at a concentration of 1.25×10^4 cells/well in a final volume of 200 μL. To determine TDO, the cells were incubated overnight at 37° C. at 5% CO2 in IMDM (Invitrogen) supplemented with 2% FBS and 2% penicillin/streptomycin in the presence of the compounds of the present invention, at different concentrations.
The plates were then centrifuged 5 min at 1000 rpm, and 100 μL of the supernatant were collected in a conical plate, 30 μL of TCA 30% were added and a further centrifuged at 3000×g for 10 minutes. 100 μL of the supernatant were collected in a flat bottomed plate and 100 μL of 2% (w/v) 4-(dimethylamino)-benzaldehyde in acetic acid and incubated for 5 min at room temperature. Kynurenine concentrations were determined by measuring the absorbance at 480 nm. A standard curve was made with pure kynurenine. The TDO activity was measured as described above using ten serial concentrations of the compounds of the present invention. Data were fitted using the Prism™ software (GraphPad Software, Inc.) using standard parameters.
The biological activity of representative compounds in human brain glioblastoma cells as determined in the above-referenced assay is summarized in the following table: […]

T1 sequence (P48775 whole entry): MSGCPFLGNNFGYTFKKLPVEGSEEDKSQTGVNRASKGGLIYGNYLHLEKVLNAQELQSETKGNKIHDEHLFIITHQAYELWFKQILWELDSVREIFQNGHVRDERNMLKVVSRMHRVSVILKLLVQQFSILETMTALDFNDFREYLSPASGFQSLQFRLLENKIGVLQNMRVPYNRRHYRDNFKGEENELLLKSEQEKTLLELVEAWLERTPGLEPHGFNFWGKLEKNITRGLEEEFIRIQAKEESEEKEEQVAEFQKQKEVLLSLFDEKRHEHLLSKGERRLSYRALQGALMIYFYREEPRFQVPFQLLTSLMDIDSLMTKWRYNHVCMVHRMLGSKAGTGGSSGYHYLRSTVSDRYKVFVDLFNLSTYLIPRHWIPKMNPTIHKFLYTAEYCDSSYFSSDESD

IC50 [nM] | SMILES
59 | CC1c2cc(-c3c[nH]c4cc(F)ccc34)ccc2S(=O)(=O)N1CC(=O)N(C)C (single isomer, unassigned; (-)) [Example 113, (−)-2-(5-(6-fluoro-1H-indol-3-yl)-3-methyl-1,1-dioxidobenzo[d]isothiazol-2(3H)-yl)-N,N-dimethylacetamide]
1450 | CCCC1NS(=O)(=O)c2ccc(-c3c[nH]c4cc(F)ccc34)cc21 (single isomer, unassigned; (-)) [Example 7, (−)-5-(6-fluoro-1H-indol-3-yl)-3-propyl-2,3-dihydrobenzo[d]isothiazole 1,1-dioxide]
66 | CNCC1NS(=O)(=O)c2ccc(-c3c[nH]c4cc(F)ccc34)cc21 (single isomer, unassigned) [Example 137, 5-(6-fluoro-1H-indol-3-yl)-3-((methylamino)methyl)-2,3-dihydrobenzo[d]isothiazole 1,1-dioxide]
34 | O=S1(=O)NC(CCO)c2cc(-c3c[nH]c4cc(F)ccc34)ccc21 (single isomer, unassigned; (+)) [Example 30, (+)-5-(6-fluoro-1H-indol-3-yl)-3-(2-hydroxyethyl)-2,3-dihydrobenzo[d]isothiazole 1,1-dioxide]
1020 | CC(=O)NCC1NS(=O)(=O)c2ccc(-c3c[nH]c4cc(F)ccc34)cc21 (single isomer, unassigned; (-)) [Example 23, (−)-N-((5-(6-fluoro-1H-indol-3-yl)-1,1-dioxido-2,3-dihydrobenzo[d]isothiazol-3-yl)methyl)acetamide]
186 | CC1c2cc(-c3c[nH]c4cc(F)ccc34)ccc2S(=O)(=O)N1C1CCNCC1 (single isomer, unassigned; (-)) [Example 51, (−)-5-(6-fluoro-1H-indol-3-yl)-3-methyl-2-(piperidin-4-yl)-2,3-dihydrobenzo[d]isothiazole 1,1-dioxide]
328 | CNC(=O)CCN1C(C)c2cc(-c3c[nH]c4cc(F)ccc34)ccc2S1(=O)=O (single isomer, unassigned; (-)) [Example 46, (−)-3-(5-(6-fluoro-1H-indol-3-yl)-3-methyl-1,1-dioxidobenzo[d]isothiazol-2(3H)-yl)-N-methylpropanamide]
255 | CC(=O)NCC1NS(=O)(=O)c2ccc(-c3c[nH]c4cc(F)ccc34)cc21 (single isomer, unassigned; (+)) [Example 24, (+)-N-((5-(6-fluoro-1H-indol-3-yl)-1,1-dioxido-2,3-dihydrobenzo[d]isothiazol-3-yl)methyl)acetamide]
366 | CNC(=O)C(N)CN1C(C)c2cc(-c3c[nH]c4cc(F)ccc34)ccc2S1(=O)=O (single isomer, unassigned) [Example 101]
74 | O=S1(=O)NC(CO)c2cc(-c3c[nH]c4cc(F)ccc34)ccc21 (single isomer, unassigned; (-)) [Example 12, (−)-5-(6-fluoro-1H-indol-3-yl)-3-(hydroxymethyl)-2,3-dihydrobenzo[d]isothiazole 1,1-dioxide]
342 | O=S1(=O)c2ccc(-c3c[nH]c4cc(F)ccc34)cc2C(CO)N1CC(O)CO (single isomer, unassigned; (-)) [Example 143, (−)-2-(2,3-dihydroxypropyl)-5-(6-fluoro-1H-indol-3-yl)-3-(hydroxymethyl)-2,3-dihydrobenzo[d]isothiazole 1,1-dioxide]
110 | C[C@@H]1NS(=O)(=O)c2ccc(-c3c[nH]c4cc(F)ccc34)cc21 (single isomer, unassigned) [Example 2, (−)-5-(6-fluoro-1H-indol-3-yl)-3-methyl-2,3-dihydro-1,2-benzothiazole 1,1-dioxide]
196 | CN1CCC(N2Cc3cc(-c4c[nH]c5cc(F)ccc45)ccc3S2(=O)=O)CC1 [Example 37, 5-(6-fluoro-1H-indol-3-yl)-2-(1-methylpiperidin-4-yl)-2,3-dihydrobenzo[d]isothiazole 1,1-dioxide]
4980 | CN(C)CC1NS(=O)(=O)c2ccc(-c3c[nH]c4cc(F)ccc34)cc21 (single isomer, unassigned; (-)) [Example 25, (−)-3-((dimethylamino)methyl)-5-(6-fluoro-1H-indol-3-yl)-2,3-dihydrobenzo[d]isothiazole 1,1-dioxide]
226 | CC(=O)N(C)CC1NS(=O)(=O)c2ccc(-c3c[nH]c4cc(F)ccc34)cc21 (single isomer, unassigned; (+)) [Example 27, (+)-N-((5-(6-fluoro-1H-indol-3-yl)-1,1-dioxido-2,3-dihydrobenzo[d]isothiazol-3-yl)methyl)-N-methylacetamide]
33 | CNC(=O)C(O)CN1C(C)c2cc(-c3c[nH]c4cc(F)ccc34)ccc2S1(=O)=O (single isomer, unassigned; (-)) [Example 100, (−)-3-(5-(6-fluoro-1H-indol-3-yl)-3-methyl-1,1-dioxidobenzo[d]isothiazol-2(3H)-yl)-2-hydroxy-N-methylpropanamide]
199 | CC1c2cc(-c3c[nH]c4cc(F)ccc34)ccc2S(=O)(=O)N1CCC(N)=O (single isomer, unassigned; (+)) [Example 47, (+)-3-(5-(6-fluoro-1H-indol-3-yl)-3-methyl-1,1-dioxidobenzo[d]isothiazol-2(3H)-yl)propanamide]
563 | CC1c2cc(-c3c[nH]c4cc(F)ccc34)ccc2S(=O)(=O)N1C1CCNCC1 (single isomer, unassigned; (+)) [Example 52, (+)-5-(6-fluoro-1H-indol-3-yl)-3-methyl-2-(piperidin-4-yl)-2,3-dihydrobenzo[d]isothiazole 1,1-dioxide]
77 | CC1c2cc(-c3c[nH]c4cc(F)ccc34)ccc2S(=O)(=O)N1C1CNC(=O)C1 (single isomer, unassigned; (+)) [Example 126, (+)-4-(5-(6-fluoro-1H-indol-3-yl)-3-methyl-1,1-dioxidobenzo[d]isothiazol-2(3H)-yl)pyrrolidin-2-one]
233 | CC1c2cc(-c3c[nH]c4cc(F)ccc34)ccc2S(=O)(=O)N1CCS(C)(=O)=O (single isomer, unassigned; (-)) [Example 54, (−)-5-(6-fluoro-1H-indol-3-yl)-3-methyl-2-(2-(methylsulfonyl)ethyl)-2,3-dihydrobenzo[d]isothiazole 1,1-dioxide]
380 | O=S1(=O)c2ccc(-c3c[nH]c4cc(F)ccc34)cc2CN1[C@@H]1CCOC1 [Example 38, (R)-5-(6-fluoro-1H-indol-3-yl)-2-(tetrahydrofuran-3-yl)-2,3-dihydrobenzo[d]isothiazole 1,1-dioxide]
499 | CNC(=O)C(CN1C(C)c2cc(-c3c[nH]c4cc(F)ccc34)ccc2S1(=O)=O)OC (single isomer, unassigned; (+)) [Example 107, (+)-3-(5-(6-fluoro-1H-indol-3-yl)-3-methyl-1,1-dioxidobenzo[d]isothiazol-2(3H)-yl)-2-methoxy-N-methylpropanamide]
348 | CC1c2cc(-c3c[nH]c4cc(F)ccc34)ccc2S(=O)(=O)N1C1CCNC(=O)C1 (single isomer, unassigned; (+)) [Example 121, (+)-4-(-5-(6-fluoro-1H-indol-3-yl)-3-methyl-1,1-dioxidobenzo[d]isothiazol-2(3H)-yl)piperidin-2-one]
